Test results published in paper PMC13379085 (PLOS Neglected Tropical Diseases, 2026).

Target: T1, lysozyme (Homo sapiens, UniProt P61626)
T1 sequence (P61626 19-148): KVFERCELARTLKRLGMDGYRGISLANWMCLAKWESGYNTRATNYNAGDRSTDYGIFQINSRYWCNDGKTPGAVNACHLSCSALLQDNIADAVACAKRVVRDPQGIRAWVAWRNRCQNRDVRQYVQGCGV
Assay: Affinity capture proteomics with 197-bead in Leishmania infected macrophage lysate
Type: binding
Design: endogenous in cells; host or cells: PMA-differentiated THP-1 macrophages infected with L. mexicana (lysate)
Conditions: 197-bead vs control bead
Procedure: To generate cell lysate, ten million THP-1 cells were plated overnight in a 10 cm dish, then differentiated with 150 nM phorbol 12-myristate 13-acetate (PMA) for 72 hours. The resulting macrophages were infected with L. mexicana promastigotes at a multiplicity of infection of 1:10 and incubated for 18 hours. After infection, cells were washed three times with PBS to remove extracellular promastigotes. Cells were then collected by scraping and pelleted with centrifugation. The cell pellet was resuspended in cell buffer (50mM Tris-HCl, 150mM NaCl, 2mM EDTA, 0.5% triton-x-100) and subjected to five freeze-thaw cycles. Samples were centrifuged 14,000g x 10 minutes to remove cellular debris. Protein concentration of supernatant was determined by BCA assay and cell lysate was stored at -80 ° C until further use.
Functionalized agarose beads were made as follows. NHS activated agarose beads were washed three times to remove acetone and resuspended in PBS to create a slurry. 494 (197 with ligation chemical handle) was prepared in 0.3 mL at 25mM in DMSO and 1.7 mL PBS was added to 1 mL of agarose slurry for a final volume of 3 mL at a concentration of 2.5mM (10% v/v DMSO). […]
The peptide samples were resuspended in 15 μL of 5% ACN/0.1% formic acid and analyzed by LC-MS/MS using an Easy nLC 1200 coupled to a QExactive HF mass spectrometer (Thermo Scientific). […]

O=C(CNCc1cccc(F)c1)Nc1ccc(-n2cc(C(F)(F)F)nc2-c2ccc(-c3ccc(C(F)(F)F)cc3)cc2)cc1 [Compound 197]
affinity capture abundance of lysozyme, Log2 fold change: 6.57
